Source: patent publication US10883963B2, “Electrochemical measurement using phenylenediamine derivative” (SEIKAGAKU CORPORATION, priority 2016, dated 2021)
Where two headings read alike, the source gives them in different places.

Legend:
[1] = test system: Limulus reagent Endospecy ES-24S; details: FIG. 8 of Patent Literature 1; cited from earlier work
[2] = 1 mM; FIG. 4 of Patent Literature 1; cited from earlier work
[3] = Stability of labeling substances and substrates in 0.1 M HEPES at 37° C., cyclic voltammetric measurement; type: physicochemical; details: for relative value of height of oxidation peak in voltammogram of free molecule (0 hours = 100%): 1.0 mM in 0.1 M HEPES pH 7.8, 37° C., light-shielded; for change of detected value in 2 hours after preparation: 0.1 M HEPES pH 7.8, 37° C.
Procedure: The labeling substances (pAP, MPDD, and DMPD) and the substrates for measurement (LGR-pAP, LGR-MPDD, LGR-DMPD) were dissolved into 0.1 M HEPES (pH 7.8) and prepared to be 1 mM, and were left to stand for 1 to 24 hours in an incubator at 37° C. Thereafter, a test was performed according to the following procedures.
As an electrochemical measurement method, cyclic voltammetry and a potential step chronoamperometric method were used. As a measuring device, a working electrode, a reference electrode, and a counter electrode, those described in <Measurement Conditions> below were used. In each measurement, the working electrode, the reference electrode, and the counter electrode were inserted in a solution, and respectively connected to connectors of a potentiostat for a working electrode, a reference electrode, and a counter electrode. After each measurement, the electrode surface of the working electrode was polished with […] polishing alumina, and cleaned with ultrapure water. In the cyclic voltammetric measurement, potential scanning was performed by setting an initial potential and a finish potential to 0 V, a first turnover potential to 0.4 V (0.6 V for LGR-pAP and LGR-DMPD, 0.7 V for LGR-MPDD), and a second turnover potential to −0.2 V, and the current was monitored. In the potential step chronoamperometric measurement, after 0.0 V was applied to the working electrode for 10 seconds, the potential was momentarily changed to 0.3 V, and the current was monitored for 35 seconds.
50 ml of test solutions (1.0 mM) of the respective substrates (LGR-pAP, LGR-MPDD, LGR-DMPD) and free molecules (pAP, MPDD, DMPD) were prepared by using 0.1 M HEPES (pH=7.8), put in a disposable 50 ml centrifuge tube (manufactured by IWAKI), and left to stand at 37° C. under light-shielded conditions. When a predetermined time (0.5 h, 1 h, 2 h, 4 h, and 24 h) elapsed, 5 ml was sampled from the test solution and subjected to cyclic voltammetric measurement. MPDD was measured when 6 hours and 8 hours elapsed as well. By using a test solution just after preparation, a measurement at a predetermined time of 0 hours was performed.

[4] = Evaluation of quantitative performance: cyclic voltammetry and chronoamperometry of substrate / free molecule mixed solutions; type: physicochemical; details: mixed solution of substrate and free molecule, 0.1 M HEPES pH 7.8, vs. Ag/AgCl
Excerpt: As a result of performing a cyclic voltammetric measurement in which the mixture ratio of a substrate and free molecule (labeling substance) was varied in stages, in a voltammogram of a mixed solution of LGR-pAP and pAP, two oxidation peaks at 0.15 V and 0.49 V were confirmed. From individual voltammograms of a substrate molecule and a free molecule, the peak near 0.49 V is considered to be derived from oxidation of LGR-pAP, and the peak near 0.15 V is considered to be derived from oxidation of pAP. Similarly, from a voltammogram of a mixed solution of LGR-DMPD and DMPD, an oxidation peak derived from LGR-DMPD was confirmed near 0.45V, and an oxidation peak derived from DMPD was confirmed near 0.19 V. Further, from a voltammogram of a mixed solution of LGR-MPDD and MPDD, an oxidation peak derived from LGR-MPDD was confirmed near 0.46 V, and an oxidation peak derived from MPDD was confirmed near 0.14 V. Further, when using any substrate, an oxidation peak current value of free molecules increased as the percentage of a free molecule increased. From these facts, it was considered that a concentration of free molecules in each mixed solution could be amperometrically quantified at a potential of 0.3 V vs. Ag/AgCl. Next, in each mixed solution, chronoamperometry was performed. […]
As an electrochemical measurement method, cyclic voltammetry and a potential step chronoamperometric method were used. […] In the cyclic voltammetric measurement, potential scanning was performed by setting an initial potential and a finish potential to 0 V, a first turnover potential to 0.4 V (0.6 V for LGR-pAP and LGR-DMPD, 0.7 V for LGR-MPDD), and a second turnover potential to −0.2 V, and the current was monitored. In the potential step chronoamperometric measurement, after 0.0 V was applied to the working electrode for 10 seconds, the potential was momentarily changed to 0.3 V, and the current was monitored for 35 seconds. […]

[5] = test system: Limulus reagent Endospecy ES-24S; experiment: Limulus test (2): endotoxin measurement by voltammetric method using labeled substrates; type: biochemical; details: substrate for measurement 0.5 mM
Procedure: Limulus tests using the substrates for measurement acquired in <Reference Example 1> described above were performed, and measurements of endotoxin were performed by a voltammetric method. The test procedures are shown below.
The same conditions as those described in <Limulus Reaction> of <Example 2> described above were applied except that a cyclic voltammetric measurement was performed instead of the chronoamperometric measurement.
The same conditions as described in <Measurement Conditions> of <Example 1> above were applied.

[6] = 0 hours (just after preparation)

| Structure (SMILES) | Measured value B: maximum value of oxidation peak current value in Limulus test with substrate (labeling substance bonded to LGR) [1] | oxidation peak current value of labeling substance itself [2] | relative value of height of oxidation peak in voltammogram of free molecule (0 hours = 100%) [3, 6] | relative value of height of oxidation peak in voltammogram of free molecule (0 hours = 100%) ([3]; 0.5 h) | relative value of height of oxidation peak in voltammogram of free molecule (0 hours = 100%) ([3]; 1 h) | relative value of height of oxidation peak in voltammogram of free molecule (0 hours = 100%) ([3]; 2 h) | change of detected value in 2 hours after preparation [3] | oxidation peak potential in cyclic voltammogram [4] | Measured value B: maximum value of oxidation peak current value in Limulus test with substrate (labeling substance bonded to LGR) [5] |
| --- | --- | --- | --- | --- | --- | --- | --- | --- | --- |
| COc1ccc(N)cc1 [pMA, para methoxyaniline] | 0.28 μA | approximately 3.0 μA | – | – | – | – | – | – | – |
| Nc1ccc(O)cc1 [pAP, P-aminophenol, reference compound] | – | – | 100.0% | 94.2% | 95.0% | 83.0% | showed a tendency to successively decrease | ~0.15 V | – |
| CN(C)c1ccc(N)cc1 [DMPD, N, N-dimethyl-p-phenylenediamine] | – | – | 100.0% | 95.3% | 94.3% | 84.5% | showed a tendency to successively decrease | ~0.19 V | 0.31 μA |
| CNc1ccc(N)cc1 [MPDD, N-methyl-p-phenylenediamine] | – | – | 100.0% | 102.4% | 102.3% | 101.0% | no decrease | ~0.14 V | 0.60 μA |
